Measurements taken from PubChem BioAssay (NCI).
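A five-concentration, 48-hour dose response in 96-well plates underlies each endpoint, interpolated linearly between surrounding concentrations. TGI: total growth inhibition.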

Legend:
Test in all cases: inhibition of tumour cell growth, NCI panel, 48 h
OVCAR-3 ovarian = tested on: OVCAR-3 ovarian
OVCAR-4 ovarian = tested on: OVCAR-4 ovarian
HCT-15 colon = tested on: HCT-15 colon
KM12 colon = tested on: KM12 colon
SNB-75 CNS = tested on: SNB-75 CNS
T-47D breast = tested on: T-47D breast
UACC-257 melanoma = tested on: UACC-257 melanoma
TK-10 renal = tested on: TK-10 renal
SK-MEL-5 melanoma = tested on: SK-MEL-5 melanoma
EKVX NSCLC = tested on: EKVX NSCLC
ACHN renal = tested on: ACHN renal
OVCAR-5 ovarian = tested on: OVCAR-5 ovarian
CCRF-CEM leukemia = tested on: CCRF-CEM leukemia
DU-145 prostate = tested on: DU-145 prostate
NCI-H460 lung = tested on: NCI-H460 lung
SK-OV-3 ovarian = tested on: SK-OV-3 ovarian
MDA-MB-231 breast = tested on: MDA-MB-231 breast
HOP-92 NSCLC = tested on: HOP-92 NSCLC
NCI/ADR-RES ovarian = tested on: NCI/ADR-RES ovarian
SNB-19 CNS = tested on: SNB-19 CNS

Row | Structure (SMILES) | TGI (OVCAR-3 ovarian) [µM] | TGI (OVCAR-4 ovarian) [µM] | TGI (HCT-15 colon) [µM] | TGI (KM12 colon) [µM] | TGI (SNB-75 CNS) [µM] | TGI (T-47D breast) [µM] | TGI (UACC-257 melanoma) [µM] | TGI (TK-10 renal) [µM] | TGI (SK-MEL-5 melanoma) [µM] | TGI (EKVX NSCLC) [µM] | TGI (ACHN renal) [µM] | TGI (OVCAR-5 ovarian) [µM] | TGI (CCRF-CEM leukemia) [µM] | TGI (DU-145 prostate) [µM] | TGI (NCI-H460 lung) [µM] | TGI (SK-OV-3 ovarian) [µM] | TGI (MDA-MB-231 breast) [µM] | TGI (HOP-92 NSCLC) [µM] | TGI (NCI/ADR-RES ovarian) [µM] | TGI (SNB-19 CNS) [µM]
1 | N#CCCN(CCC#N)c1ccc(C(N=Nc2ccc(Cl)cc2)=Nc2ccc(Cl)cc2)cc1 | 36.9 | 81.2 | 23.7 | 44.1 | 45.6 | 23.9 | 29.7 | 33.5 | 24.7 | 85.3 | 34 | 43.8 | 65.3 | 30.3 | 29.2 | > 100 | 42 | 38.8 | 38 | 53.3
2 | CC(=O)OCCOCCN1CCN(c2c(O)c3c(c(O)c2Cl)C(=O)C=CC3=O)CC1 | 2 | 1.32 | 1.23 | 4.92 | 3.71 | 2.77 | 2.38 | 1.62 | 2.97 | 3.22 | 0.757 | 2.97 | – | 3.29 | – | 6.06 | 1.09 | 0.822 | 1.21 | 6.82
3 | Cc1cccc(C(=O)O)c1CC1NCCC2c3ccccc3NC12 (stereo unspecified) | > 100 | > 100 | > 100 | > 100 | > 100 | > 100 | > 100 | > 100 | > 100 | > 100 | > 100 | > 100 | > 100 | > 100 | > 100 | > 100 | > 100 | > 100 | > 100 | > 100
4 | CCCCCCCCCCCCCCCCOc1ccc(/C=C/C2=[N+](CCCl)CCO2)cc1 | > 100 | > 100 | > 100 | > 100 | > 100 | > 100 | > 100 | > 100 | > 100 | > 100 | > 100 | > 100 | > 100 | > 100 | > 100 | > 100 | 83.5 | > 100 | > 100 | > 100
5 | CC(=O)OC1OC(c2ccoc2)C[C@@]12C1CCC3O[C@]3(C)[C@]1(C)C[C@H](OC(C)=O)[C@H]2C (stereo partly specified) | > 75 | > 75 | > 75 | > 75 | > 75 | > 75 | > 75 | > 75 | > 75 | > 75 | > 75 | > 75 | > 75 | > 75 | > 75 | > 75 | > 75 | > 75 | > 75 | > 75
6 | NC(=O)C1CCCN1C(=O)N(CCCl)N=O (stereo unspecified) | > 100 | > 100 | > 100 | > 100 | 72.8 | > 100 | > 100 | > 100 | > 100 | > 100 | > 100 | > 100 | > 100 | > 100 | > 100 | > 100 | > 100 | > 100 | > 100 | > 100
7 | CC(=O)c1ccccc1NS(=O)(=O)c1ccc2nc(C)n(NS(=O)(=O)c3ccccc3C(C)=O)c(=O)c2c1 | > 100 | > 100 | > 100 | > 100 | > 100 | > 100 | > 100 | > 100 | > 100 | > 100 | > 100 | > 100 | > 100 | > 100 | > 100 | > 100 | > 100 | > 100 | > 100 | > 100
8 | O[C@H]1[C@H](O)[C@@H](Cn2nnc(-c3ccccc3)c2-c2ccccc2)OCO[C@@H]1Cn1nnc(-c2ccccc2)c1-c1ccccc1 | 9.14 | 26.9 | 11.8 | 11.6 | 28.9 | 31.6 | 15.1 | 19 | 10.2 | 30.1 | 13.6 | 6.49 | > 34.5 | 23.2 | 13.4 | 27.2 | 16.4 | 8.23 | > 42.4 | 55.4
9 | CNc1nc2c(C)ccc3[nH]c(N(C)C)nc3c-2n1 | > 100 | 80.9 | > 100 | > 100 | > 100 | > 100 | > 100 | > 100 | 50.3 | > 100 | 76.8 | > 100 | > 100 | > 100 | > 100 | > 100 | > 100 | > 100 | > 100 | 65
10 | O=C1Nc2ccccc2/C1=C\c1c(Cl)nc2n1CCS2 | 68.7 | > 100 | 64.5 | > 100 | 56.8 | 91 | 30.6 | 49.9 | 29.4 | > 100 | > 100 | > 100 | > 100 | > 100 | 45.3 | 74.9 | 53.2 | > 100 | 67.5 | > 100
11 | CCn1c(=O)c2c3cc(OC(C)=O)ccc3oc2c2ccc(OC(C)=O)cc21 | > 100 | > 100 | > 100 | > 100 | 45 | 75.4 | > 100 | > 100 | > 100 | 70.3 | 85.9 | – | > 100 | > 100 | > 100 | > 100 | > 100 | 90.5 | > 100 | > 100
12 | Cc1ccc(C)c(COCCOCn2c(=O)[nH]c(=O)c3cc(Br)ccc32)c1 | > 100 | > 100 | > 100 | > 100 | > 100 | > 100 | > 100 | > 100 | – | > 100 | > 100 | > 100 | > 100 | > 100 | > 100 | > 100 | > 100 | > 100 | > 100 | > 100
